Tested on: attenuated E. coli K12 strain with a kanamycin resistance gene
Test: colorimetric phenotypic antibiotic susceptibility test (phenol red) in capillary tubes
Format: cell-based
Conditions: bacteria culture incubated in capillary tubes with added antibiotic; LB media, 0.05% phenol red; read at the 4-hour mark
Procedure: According to an embodiment, a colorimetric phenotypic testing approach was utilized to assess the antibiotic susceptibility of an attenuated E. coli K12 strain. The pH indicator phenol red was used to provide a phenotypic indication of bacterial growth. For colorimetric phenotypic testing approach, bacterial growth tests were conducted with small sample volumes in a PDMS microchip. The E. coli strain with a kanamycin resistance gene as a selection marker was first streaked and incubated overnight on LB agar plates containing kanamycin. Single colonies were subsequently picked and propagated in liquid bulk culture. Following overnight bulk culture to stationary phase, small volumes (˜1 μL) of culture were separately incubated on the PDMS chip in wells each containing a 19 μL mixture of fresh LB media, 0.05% phenol red, and the antibiotics kanamycin (control) and ampicillin (test). The metabolic activity of viable bacteria leads to an accumulation of organic acids in the growth media, which causes the phenol red to change in color from red to yellow, which is expected for the control group as the E. coli stain is kanamycin resistant.
A similar experiment was conducted by incubating the bacteria culture in capillary tubes designed to hold microliters of liquid. […]

## CC1(C)S[C@@H]2[C@H](NC(=O)[C@H](N)c3ccccc3)C(=O)N2[C@H]1C(=O)O [ampicillin]
  color change of phenol red pH indicator (phenotypic indication of bacterial growth): No color change
